Data: ChEMBL document CHEMBL5724914, “Linking interpersonal differences in gut microbiota composition and drug biotransformation activity” (2024)

How the values were obtained:
[1] = (§1) The drug is tested on WLS-038 corresponding to human gut metagenome with ENA study accession number: PRJEB37062 and ENA sample accession number: ERS12561745 for biotransformation under anaerobic condition. The drug concentrations were measured over 9 timepoints collected between 0 and 24 hours of incubation by liquid-chromatography-coupled mass spectrometry (LC–MS); conditions: 2 µM
[2] = as §1, with “WLS-086” for “WLS-038”, “ERS12561752” for “ERS12561745”; conditions: 2 µM
[3] = human gut metagenome, 24 h, 2 µM
[4] = as §1, with “WLS-077” for “WLS-038”, “ERS12561750” for “ERS12561745”; conditions: 2 µM
[5] = human gut metagenome, 24 h, 2 µM; remark: listed apart in the source
[6] = human gut metagenome, 24 h, 2 µM; remark: listed apart in the source
[7] = human gut metagenome, 24 h, 2 µM; remark: listed apart in the source
[8] = as §1, with “WLS-090” for “WLS-038”, “ERS12561753” for “ERS12561745”; conditions: 2 µM
[9] = human gut metagenome, 24 h, 2 µM; remark: listed apart in the source
Further: call rule not given here.

SMILES	Bacterial Biotransformation [1]	Bacterial Biotransformation [2]	Bacterial Biotransformation [3]	Bacterial Biotransformation [4]	Bacterial Biotransformation [5]	Bacterial Biotransformation [6]	Bacterial Biotransformation [7]	Bacterial Biotransformation [8]	Bacterial Biotransformation [9]
N#Cc1ccc(C(c2ccc(C#N)cc2)n2cncn2)cc1 [LETROZOLE]	Compound NOT metabolized	Compound NOT metabolized	Compound NOT metabolized	Compound NOT metabolized	Compound NOT metabolized	Compound NOT metabolized	Compound NOT metabolized	Compound NOT metabolized	Compound NOT metabolized
CC(Oc1c(Cl)cccc1Cl)C1=NCCN1 (configuration not stated) [LOFEXIDINE]	Compound NOT metabolized	Compound metabolized	Compound NOT metabolized	Compound NOT metabolized	Compound NOT metabolized	Compound metabolized	Compound NOT metabolized	Compound metabolized	Compound metabolized
CN(C)C(=O)C(CCN1CCC(O)(c2ccc(Cl)cc2)CC1)(c1ccccc1)c1ccccc1 [LOPERAMIDE]	Compound metabolized	Compound metabolized	Compound metabolized	Compound metabolized	Compound metabolized	Compound metabolized	Compound metabolized	Compound metabolized	Compound metabolized
CCCCc1nc(Cl)c(CO)n1Cc1ccc(-c2ccccc2-c2nn[nH]n2)cc1 [LOSARTAN]	Compound NOT metabolized	Compound metabolized	Compound metabolized	Compound NOT metabolized	Compound metabolized	Compound metabolized	Compound metabolized	Compound metabolized	Compound metabolized
COC(=O)Nc1nc2ccc(C(=O)c3ccccc3)cc2[nH]1 [MEBENDAZOLE]	Compound metabolized	Compound metabolized	Compound metabolized	Compound metabolized	Compound metabolized	Compound metabolized	Compound metabolized	Compound metabolized	Compound metabolized
COc1ccccc1OCC(O)COC(N)=O (configuration not stated) [METHOCARBAMOL]	Compound NOT metabolized	Compound NOT metabolized	Compound NOT metabolized	Compound NOT metabolized	Compound NOT metabolized	Compound NOT metabolized	Compound NOT metabolized	Compound NOT metabolized	Compound NOT metabolized
CC[C@@H](CO)NC(=O)[C@@H]1C=C2c3cccc4c3c(cn4C)C[C@H]2N(C)C1.O=C(O)/C=C\C(=O)O [METHYSERGIDE MALEATE]	Compound NOT metabolized	Compound metabolized	Compound NOT metabolized	Compound NOT metabolized	Compound metabolized	Compound NOT metabolized	Compound NOT metabolized	Compound NOT metabolized	Compound NOT metabolized
CCN(CC)CCNC(=O)c1cc(Cl)c(N)cc1OC [METOCLOPRAMIDE]	Compound NOT metabolized	Compound metabolized	Compound NOT metabolized	Compound NOT metabolized	Compound NOT metabolized	Compound NOT metabolized	Compound NOT metabolized	Compound NOT metabolized	Compound NOT metabolized
